Measured values as given in article PMC7395068, “The evolution of strategies to minimise the risk of human drug-induced liver injury (DILI) in drug discovery and development” (Archives of Toxicology, 2020).
Where two headings read alike, the source gives them in different places.

Key:
HepG2 cells [1] = settings: cited from earlier work
[2] = system: THLE-Null and THLE-3A4 cells; settings: In vitro Assay; ref Gustafsson 2014; cited from earlier work
human hepatocytes = settings: cited from earlier work; for Structural based (HCI): In vitro Assay, ref Xu 2008
rBsep = settings: In vitro Assay; ref Dawson 2012; cited from earlier work
[3] = cited from earlier work
HepG2 cells [4] = settings: cited from earlier work; for Structural based (HCI): In vitro Assay, ref O'Brien 2006
[5] = system: HepG2 cells, primary human hepatocytes; settings: In vitro Assay; ref Garside 2014; cited from earlier work
Upcyte human hepatocytes = settings: In vitro Assay; ref Tolosa 2019; cited from earlier work
HepaRG spheroids = test: Combined HCI (HCS) and cellular ATP 3D assay in HepaRG spheroids
[6] = system: isolated mouse liver mitochondria; settings: In vitro Assay; ref Porceddu 2012; cited from earlier work
hLiMTs [7] = settings: cited from earlier work
hLiMTs [8] = test: Combined HCI (HCS) and cellular ATP 3D assay in hLiMTs
HepG2 cells [9] = settings: cited from earlier work; remark: listed apart in the source
[10] = plasma free fraction; cited from earlier work
[11] = read-out: Human plasma Cmax; total plasma Cmax.tot, median of 9 literature references; cited from earlier work
[12] = cited from earlier work; remark: listed apart in the source
[13] = Plasma free fraction (fu) and unbound Cmax (Cmax,u); format: in vitro ADME, human; settings: unbound plasma Cmax
Method: The prediction of DILI severity was evaluated further using the 3D combined HCI assays using plasma-free fraction. The majority of fu values were obtained from literature, when unavailable in-house prediction was utilised. Unbound plasma Cmax concentrations (Cmax,u) were derived by multiplying total plasma Cmax with the corresponding free fraction (fu) for each compound.

[14] = system: THLE or HepG2 cells, isolated mitochondria, BSEP; settings: cited from earlier work
PHH = settings: cited from earlier work
[15] = Microtissue model structural based (HCI), combined HCS and ATP, MEC < 25 × Cmax.tot cut-off
[16] = In vitro Assay, ref Proctor 2017
[17] = In vitro Assay, ref Persson 2013
[18] = Modeled in vitro assays (cytotoxicity, mitochondrial dysfunction, BSEP), ref Aleo et al. 2019

CN1CCC(=C2c3ccccc3CC(=O)c3sccc32)CC1 [ketotifen, reference compound]
Structural based (HCI) (HepG2 cells [1]; In vitro Assay, ref Tolosa 2012): +VE
DILI in vitro assay prediction, Tolosa (2012) (HepG2 cells [1]; Structural based (HCI), HepG2, ref Tolosa et al. 2012): false-positive
THLE-Null [2]: -VE
THLE-Null/3A4 [2]: -VE
Structural based (HCI) (human hepatocytes): -VE
Inhibition of rBsep cutoff<1& cmax u>.2 (rBsep): -VE
Inhibition of rBsep cutoff<3 (rBsep): -VE
In vivo DILI ([3]; ref Dawson 2012): -VE
In vivo DILI ([3]; ref Garside 2014): +VE
In vivo DILI ([3]; ref Gustafsson 2014): +VE
In vivo DILI ([3]; ref O'Brien 2006): -VE
In vivo DILI ([3]; ref Tolosa 2012): -VE
In vivo DILI ([3]; ref Tolosa 2019): +VE
In vivo DILI ([3]; ref Xu 2008): -VE
Structural based (HCI) (HepG2 cells [4]): -VE
Cluster 1-6 +VE Assay [5]: +VE
Upcytes multi donor assay 14day data (Upcyte human hepatocytes): +VE

[H]/N=C(/N)N[C@H]1[C@H](O)[C@@H](O)[C@H](O[C@@H]2O[C@@H](C)[C@](O)(C=O)[C@H]2O[C@@H]2O[C@@H](CO)[C@H](O)[C@@H](O)[C@@H]2NC)[C@@H](N/C(N)=N\[H])[C@@H]1O [streptomycin, reference compound]
HepaRG <25x Avg Cmax ATP (HepaRG spheroids; HepaRG, ATP endpoint, cut-off <25x Avg Cmax): -ve
HepaRG <100x Avg Cmaxu ATP (HepaRG spheroids; HepaRG, ATP endpoint, cut-off <100x Avg Cmaxu): +ve (<100x Avg Cmaxu)
HepaRG <25x Avg Cmax HCS (HepaRG spheroids; HepaRG, HCS endpoints, cut-off <25x Avg Cmax): -ve
HepaRG <100x Avg Cmaxu HCS (HepaRG spheroids; HepaRG, HCS endpoints, cut-off <100x Avg Cmaxu): +ve (<100x Avg Cmaxu)
HepaRG <25x Avg Cmax All (HepaRG spheroids; HepaRG, all endpoints (ATP and HCS), cut-off <25x Avg Cmax): -ve
HepaRG Cmax max All (HepaRG spheroids; HepaRG, all endpoints, Cmax max used): -ve
HepaRG Cmax min All (HepaRG spheroids; HepaRG, all endpoints, Cmax min used): -ve
HepaRG <10 uM All (HepaRG spheroids; HepaRG, all endpoints, cut-off <10 uM): -ve
HepaRG <100x Avg Cmaxu All (HepaRG spheroids; HepaRG, all endpoints, cut-off <100x Avg Cmaxu): +ve (<100x Avg Cmaxu)
AC50 (HepaRG spheroids; Homo sapiens, HepaRG, read-out: ATP endpoint AC50): 3.65 mM
minimal effective concentration (HepaRG spheroids; Homo sapiens, HepaRG, read-out: ATP endpoint MEC): 2830 µM
minimal effective concentration (HepaRG spheroids; Homo sapiens, HepaRG, read-out: HCS endpoint MEC): 3140 µM
DILI prediction HepaRG spheroids (HCS-MEC) (HepaRG spheroids; [15]): -VE
in vitro data EC2<=1x Cmax [6]: +VE
in vitro data EC20<=2uM [6]: -VE
hLiMTs ATP <100uM (hLiMTs [7]; [16]): -VE
hLiMTs/100xCmax, Proctor (2017) (hLiMTs [7]; hLiMTs, ATP, IC50 < 100 × Cmax.tot, ref Proctor et al. 2017): -VE
hLiMTs/100uM, Proctor (2017) (hLiMTs [7]; hLiMTs, ATP, IC50 threshold 100 µM, ref Proctor et al. 2017): -VE
THLE-Null [2]: -VE
THLE-Null/3A4 [2]: -VE
AC50 (hLiMTs [8]; Homo sapiens, read-out: ATP endpoint AC50): 1.96 mM
minimal effective concentration (hLiMTs [8]; Homo sapiens, read-out: ATP endpoint MEC): 1700 µM
DILI prediction hLiMTs (HCS-MEC) (hLiMTs [8]; [15]): -VE
hLiMTs <25x Avg Cmax ATP (hLiMTs [8]; hLiMTs, ATP endpoint, cut-off <25x Avg Cmax): -ve
hLiMTs <100x Avg Cmaxu ATP (hLiMTs [8]; hLiMTs, ATP endpoint, cut-off <100x Avg Cmaxu): +ve (<100x Avg Cmaxu)
hLiMTs <25x Avg Cmax HCS (hLiMTs [8]; hLiMTs, HCS endpoints, cut-off <25x Avg Cmax): -ve
hLiMTs <100x Avg Cmaxu HCS (hLiMTs [8]; hLiMTs, HCS endpoints, cut-off <100x Avg Cmaxu): -ve
hLiMTs <25x Avg Cmax All (hLiMTs [8]; hLiMTs, all endpoints (ATP and HCS), cut-off <25x Avg Cmax): -ve
hLiMTs Cmax max All (hLiMTs [8]; hLiMTs, all endpoints, Cmax max used): -ve
hLiMTs Cmax min All (hLiMTs [8]; hLiMTs, all endpoints, Cmax min used): -ve
hLiMTs <10 uM All (hLiMTs [8]; hLiMTs, all endpoints, cut-off <10 uM): -ve
hLiMTs <100x Avg Cmaxu All (hLiMTs [8]; hLiMTs, all endpoints, cut-off <100x Avg Cmaxu): +ve (<100x Avg Cmaxu)
Cluser analysis (HepG2 cells [9]; [17]): -VE
Structural based (HCI) (HepG2 cells [9]; [17]): -VE
DILI in vitro assay prediction, Persson (2013) (HepG2 cells [9]; Structural based (HCI), HepG2, ref Persson et al. 2013): -VE
fu [10]: 0.650
Structural based (HCI) (human hepatocytes): -VE
DILI in vitro assay prediction, Xu (2008) (human hepatocytes; Structural based (HCI), human hepatocytes, ref Xu et al. 2008): -VE
Inhibition of rBsep cutoff<1& cmax u>.2 (rBsep): -VE
Inhibition of rBsep cutoff<3 (rBsep): -VE
Cmax [11]: 64.5 µM
Assigned DILI category ([3]; Chen et al. 2016 or literature alignment, ref Chen et al. 2016): 1
In vivo DILI ([3]; ref Aleo 2019): -VE
In vivo DILI ([3]; ref Dawson 2012): -VE
In vivo DILI ([3]; ref Garside 2014): -VE
In vivo DILI ([3]; ref Gustafsson 2014): -VE
In vivo DILI ([3]; ref O'Brien 2006): -VE
In vivo DILI ([3]; ref Persson 2013): -VE
In vivo DILI ([3]; ref Porceddu 2012): +VE
In vivo DILI ([3]; ref Proctor 2017): -VE
In vivo DILI ([3]; ref Tolosa 2019): -VE
In vivo DILI ([3]; ref Xu 2008): -VE
Structural based (HCI) (HepG2 cells [4]): +VE
DILI in vitro assay prediction, O'Brien (2006) (HepG2 cells [4]; Structural based (HCI), HepG2, ref O'Brien et al. 2006): +VE (lowest HCI endpoint IC50 (or in the absence of dose–response < 100 µM) < 30 × total human plasma exposure levels (Cmax.tot))
DILI severity category (Chen et al. [2016]) ([12]; LTKB DILIrank category, ref Chen et al. 2016): No
DILI severity category (Chen 2016) ([12]; human DILI classification, LTKB DILIrank, ref Chen et al. 2016): No
DILI severity category ([12]; human DILI severity, ref Chen et al.): No
DILI +VE (5-8), DILI -VE (-4) ([12]; ref Chen 2016): -VE
DILI severity category ([12]; ref Chen 2016): vNo-DILI-Concern
Human plasma Cmax,u [13]: 41.912 µM
Cluster 1-6 +VE Assay [5]: -VE
Partition Hybrid HRM Score ([14]; In vitro Assay, ref Aleo 2019): -VE
Ro2 Hybrid HRM Score ([14]; In vitro Assay, ref Aleo 2019): -VE
Partition Hybrid HRM Score ≥4, Aleo (2019) [14, 18]: -VE
Partition Hybrid HRM Score ≥8, Aleo (2019) [14, 18]: -VE
Rule of Two hybrid HRM Score ≥3, Aleo (2019) [14, 18]: -VE
Rule of Two hybrid HRM Score ≥8, Aleo (2019) [14, 18]: -VE
Upcytes multi donor assay 14day data (Upcyte human hepatocytes): -VE
PHH/100xCmax, Proctor (2017) (PHH; 2D PHH, ATP, IC50 < 100 × Cmax.tot, ref Proctor et al. 2017): -VE
PHH/100uM, Proctor (2017) (PHH; 2D PHH, ATP, IC50 threshold 100 µM, ref Proctor et al. 2017): -VE
PHH ATP <100uM (PHH; [16]): -VE
